From US20230079819A1, “COMPOUNDS AND USES THEREOF” (Foghorn Therapeutics Inc., priority 2019, published 2023)
Read-outs that look alike come from different tables or passages of the source.

What was measured:
BRG-1 = target: T1, BRG-1 (Homo sapiens, UniProt P51532); assay: ATPase catalytic activity of BRG-1, ADP-Glo in vitro biochemical assay; details: ATPase catalytic activity, 30 nM BRG-1, 400 μM ATP
T1 construct: made in house; host or cells: High Five insect cells

BRM = target: T2, BRM (Homo sapiens, UniProt P51531); assay: ATPase catalytic activity of BRM, ADP-Glo in vitro biochemical assay; details: ATPase catalytic activity, 30 nM BRM, 400 μM ATP
T2 construct: made in house; host or cells: High Five insect cells
T2 sequence (P51531 whole entry): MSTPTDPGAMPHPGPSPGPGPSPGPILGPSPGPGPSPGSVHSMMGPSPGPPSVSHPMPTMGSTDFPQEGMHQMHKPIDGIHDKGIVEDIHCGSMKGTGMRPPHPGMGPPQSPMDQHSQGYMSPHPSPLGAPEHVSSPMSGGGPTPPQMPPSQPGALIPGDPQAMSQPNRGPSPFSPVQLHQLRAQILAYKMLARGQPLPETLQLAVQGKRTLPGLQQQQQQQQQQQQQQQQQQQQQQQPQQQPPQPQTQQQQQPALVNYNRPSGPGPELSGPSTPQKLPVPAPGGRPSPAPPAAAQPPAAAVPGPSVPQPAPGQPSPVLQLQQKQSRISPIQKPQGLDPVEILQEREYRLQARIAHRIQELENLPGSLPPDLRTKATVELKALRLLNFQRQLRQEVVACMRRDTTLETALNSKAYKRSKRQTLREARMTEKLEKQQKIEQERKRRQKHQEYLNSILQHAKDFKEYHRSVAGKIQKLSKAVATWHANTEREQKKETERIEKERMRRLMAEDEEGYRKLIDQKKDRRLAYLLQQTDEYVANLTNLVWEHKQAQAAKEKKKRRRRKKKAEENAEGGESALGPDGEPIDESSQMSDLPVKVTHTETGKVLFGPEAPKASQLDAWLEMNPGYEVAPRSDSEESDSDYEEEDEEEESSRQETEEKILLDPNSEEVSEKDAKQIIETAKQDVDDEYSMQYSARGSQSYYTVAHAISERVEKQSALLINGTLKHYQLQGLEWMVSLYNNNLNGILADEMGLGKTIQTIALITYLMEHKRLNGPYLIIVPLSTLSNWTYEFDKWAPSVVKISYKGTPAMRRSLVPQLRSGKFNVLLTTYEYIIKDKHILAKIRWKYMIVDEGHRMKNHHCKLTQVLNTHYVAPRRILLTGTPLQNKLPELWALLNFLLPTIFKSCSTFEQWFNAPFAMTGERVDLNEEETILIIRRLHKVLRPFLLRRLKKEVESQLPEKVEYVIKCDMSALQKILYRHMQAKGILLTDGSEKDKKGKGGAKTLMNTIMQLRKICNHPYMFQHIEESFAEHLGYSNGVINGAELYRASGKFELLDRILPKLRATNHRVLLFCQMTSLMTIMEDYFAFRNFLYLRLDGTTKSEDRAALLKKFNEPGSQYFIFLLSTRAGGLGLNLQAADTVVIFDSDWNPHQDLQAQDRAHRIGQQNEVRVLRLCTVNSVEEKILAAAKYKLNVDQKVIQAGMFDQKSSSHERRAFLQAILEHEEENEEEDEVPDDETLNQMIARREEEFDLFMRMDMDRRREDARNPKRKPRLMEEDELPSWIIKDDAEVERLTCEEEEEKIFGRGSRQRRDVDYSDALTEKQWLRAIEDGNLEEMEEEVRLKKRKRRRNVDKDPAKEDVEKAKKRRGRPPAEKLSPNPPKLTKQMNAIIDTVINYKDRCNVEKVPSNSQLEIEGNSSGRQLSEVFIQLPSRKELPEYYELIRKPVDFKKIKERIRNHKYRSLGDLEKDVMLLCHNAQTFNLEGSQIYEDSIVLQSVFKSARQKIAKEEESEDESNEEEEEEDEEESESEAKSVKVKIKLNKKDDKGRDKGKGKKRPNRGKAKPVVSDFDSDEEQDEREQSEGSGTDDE

T1 sequence (P51532 whole entry): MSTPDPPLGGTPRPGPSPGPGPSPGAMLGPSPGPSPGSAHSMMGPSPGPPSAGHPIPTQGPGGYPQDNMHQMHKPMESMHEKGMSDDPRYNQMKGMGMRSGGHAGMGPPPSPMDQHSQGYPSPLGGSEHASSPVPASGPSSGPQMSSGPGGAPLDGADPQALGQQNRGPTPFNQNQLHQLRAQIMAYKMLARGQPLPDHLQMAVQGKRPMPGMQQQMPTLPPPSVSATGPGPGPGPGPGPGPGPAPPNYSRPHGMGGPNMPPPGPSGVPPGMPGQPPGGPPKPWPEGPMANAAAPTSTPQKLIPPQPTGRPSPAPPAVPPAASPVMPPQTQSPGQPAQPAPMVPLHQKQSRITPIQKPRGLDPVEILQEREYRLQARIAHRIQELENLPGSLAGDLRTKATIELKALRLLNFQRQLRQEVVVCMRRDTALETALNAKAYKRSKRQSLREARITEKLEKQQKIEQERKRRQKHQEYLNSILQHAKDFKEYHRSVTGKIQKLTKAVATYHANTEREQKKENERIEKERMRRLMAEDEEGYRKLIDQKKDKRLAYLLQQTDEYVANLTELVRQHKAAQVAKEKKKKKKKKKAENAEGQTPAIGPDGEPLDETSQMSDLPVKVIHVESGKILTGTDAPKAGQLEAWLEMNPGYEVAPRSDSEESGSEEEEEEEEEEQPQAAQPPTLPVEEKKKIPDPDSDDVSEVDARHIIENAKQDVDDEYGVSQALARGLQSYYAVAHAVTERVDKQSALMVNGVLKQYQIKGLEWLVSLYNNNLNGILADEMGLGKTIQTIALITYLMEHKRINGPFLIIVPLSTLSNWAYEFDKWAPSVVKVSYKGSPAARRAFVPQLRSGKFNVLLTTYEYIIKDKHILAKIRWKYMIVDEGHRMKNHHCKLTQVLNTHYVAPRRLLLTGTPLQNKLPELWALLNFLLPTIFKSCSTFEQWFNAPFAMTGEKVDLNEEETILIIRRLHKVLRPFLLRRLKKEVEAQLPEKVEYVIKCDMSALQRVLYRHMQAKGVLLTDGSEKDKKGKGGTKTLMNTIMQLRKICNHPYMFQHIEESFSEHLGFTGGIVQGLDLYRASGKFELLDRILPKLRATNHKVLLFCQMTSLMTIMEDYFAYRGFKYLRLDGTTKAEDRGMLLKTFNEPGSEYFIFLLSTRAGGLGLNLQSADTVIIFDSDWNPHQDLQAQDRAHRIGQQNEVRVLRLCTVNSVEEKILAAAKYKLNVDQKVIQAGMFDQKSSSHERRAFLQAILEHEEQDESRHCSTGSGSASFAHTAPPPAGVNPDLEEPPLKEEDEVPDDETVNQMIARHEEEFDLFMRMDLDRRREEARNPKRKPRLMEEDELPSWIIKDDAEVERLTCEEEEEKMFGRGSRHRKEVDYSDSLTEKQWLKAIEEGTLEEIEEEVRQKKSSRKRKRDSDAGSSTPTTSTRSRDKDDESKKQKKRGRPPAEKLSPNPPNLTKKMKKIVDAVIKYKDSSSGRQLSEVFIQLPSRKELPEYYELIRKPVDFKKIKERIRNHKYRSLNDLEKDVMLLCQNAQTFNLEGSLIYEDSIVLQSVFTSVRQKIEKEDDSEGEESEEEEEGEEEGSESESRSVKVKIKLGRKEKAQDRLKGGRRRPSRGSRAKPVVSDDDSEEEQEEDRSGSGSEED

Row | IC50 (BRG-1; read-out: BRG1 IP50) [µM] | IC50 (BRM; read-out: BRM IP50) [µM] | IC50 (BRG-1; read-out: BRG1 IP50 (μM)*) [µM] | IC50 (BRM; read-out: BRM IP50 (μM)*) [µM] | Structure (SMILES)
1 | < 0.01 | < 0.01 | – | – | CS(=O)(=O)n1ccc(C(=O)NCC(=O)Nc2nc(-c3cccc([C@H]4CC[C@H](O)CC4)c3)cs2)c1 [Compound 386, N-(2-((4-(3-((trans)-4-hydroxycyclohexyl)phenyl)thiazol-2-yl)amino)-2-oxoethyl)-1-(methylsulfonyl)-1H-pyrrole-3-carboxamide]
2 | – | – | > 0.01 | > 0.01 | CO[C@H]1CN(c2cccc(-c3csc(NC(=O)CNC(=O)c4ccn(S(C)(=O)=O)c4)n3)c2)C[C@H]1OC [Compound 199]
3 | – | – | > 0.01 | > 0.01 | COC[C@H]1CCCN(c2cccc(-c3csc(NC(=O)CNC(=O)c4ccn(S(C)(=O)=O)c4)n3)c2)C1 [Compound 92, (S)—N-(2-((4-(3-(3-(methoxymethyl)piperidin-1-yl)phenyl)thiazol-2-yl)amino)-2-oxoethyl)-1-(methylsulfonyl)-1H-pyrrole-3-carboxamide]
4 | – | – | > 0.01 | > 0.01 | COC[C@H](NC(=O)c1ccn(C(C)(C)C)c1)C(=O)Nc1nc(-c2ccc3c(c2)C(=O)N(C)CC3)cs1 [Compound 64, (S)-1-(tert-butyl)-N-(3-methoxy-1-((4-(2-methyl-1-oxo-1,2,3,4-tetrahydroisoquinolin-7-yl)thiazol-2-yl)amino)-1-oxopropan-2-yl)-1H-pyrrole-3-carboxamide]
5 | > 0.1 | > 0.1 | – | – | CC(F)C(C)(F)n1ccc(C(=O)NCC(=O)Nc2nc(-c3cccc(N4C[C@@H](C)O[C@@H](C)C4)n3)cs2)c1 (stereo partly drawn) [Compound 749]
6 | < 0.01 | < 0.01 | – | – | CN1CCc2c(F)cc(-c3csc(NC(=O)CNC(=O)c4ccn(S(C)(=O)=O)c4)n3)cc21 [Compound 569]
7 | > 0.1 | > 0.1 | – | – | Cn1ccc2ccc(-c3csc(NC(=O)CNC(=O)c4ccn(C56CC(C5)C6)c4)n3)cc2c1=O [Compound 493]
8 | > 0.01 | < 0.01 | – | – | N#CC1(n2ccc(C(=O)NCC(=O)Nc3nc(-c4cc(F)cc(N5CCC5)c4)cs3)c2)CC1 [Compound 521]
9 | > 0.1 | > 0.1 | – | – | CS(=O)(=O)n1ccc(C(=O)NCC(=O)Nc2nc(-c3cccc(N4C[C@H]5C[C@@H]4C[C@H]5O)c3)cs2)c1 (racemic) [Compound 468]
10 | > 0.1 | > 0.01 | – | – | N#CC1(n2ccc(C(=O)NCC(=O)Nc3nc(-c4cccc(N5CCC5)n4)cs3)c2)CC1 [Compound 473]
11 | – | – | < 0.01 | < 0.01 | CN(C)Cc1cc(-c2cccc(-c3csc(NC(=O)CNC(=O)c4ccn(S(C)(=O)=O)c4)n3)c2)ccn1 [Compound 1, N-(2-((4-(3-(2-((dimethylamino)methyl)pyridin-4-yl)phenyl)thiazol-2-yl)amino)-2-oxoethyl)-1-(methylsulfonyl)-1H-pyrrole-3-carboxamide]
12 | > 0.1 | > 0.1 | – | – | CC1(n2ccc(C(=O)NCC(=O)Nc3nc(-c4cccc(OC5CC5)c4F)cs3)c2)COC1 [Compound 548]
13 | < 0.01 | < 0.01 | – | – | COC[C@H](NC(=O)c1ccn(S(C)(=O)=O)c1)C(=O)Nc1nc(-c2cc(F)c3c(c2)N(C)CC3)cs1 [Compound 713]
14 | > 0.01 | > 0.01 | – | – | COCC[C@H](NC(=O)c1ccn(C(C)(C)C)c1)C(=O)Nc1nc(-c2ccc3ccn(C)c(=O)c3c2)cs1 [Compound 567]
15 | > 0.01 | > 0.01 | – | – | COCC1CN(c2cccc(-c3csc(NC(=O)CNC(=O)c4ccn(C(C)(C)C)c4)n3)n2)CCO1 (stereo not drawn) [Compound 684]
16 | > 0.1 | > 0.1 | – | – | CC(C)(C)n1ccc(C(=O)NCC(=O)Nc2nc(-c3cccc(OCC4(F)COC4)c3)cs2)c1 [Compound 509]
17 | < 0.01 | < 0.01 | – | – | COC[C@H](NC(=O)c1ccn(S(C)(=O)=O)c1)C(=O)Nc1nc(-c2cc(F)c3c(c2)CCN3C)cs1 [Compound 758]
18 | – | – | > 0.01 | > 0.01 | CS(=O)(=O)n1ccc(C(=O)NCC(=O)Nc2nc(-c3cccc(N4CCC[C@H](F)C4)c3)cs2)c1 [Compound 208]

Row | IC50 (BRG-1; read-out: BRG1 IP50) [µM] | IC50 (BRM; read-out: BRM IP50) [µM] | IC50 (BRG-1; read-out: BRG1 IP50 (μM)*) [µM] | IC50 (BRM; read-out: BRM IP50 (μM)*) [µM] | Structure (SMILES)
19 | > 0.1 | > 0.1 | – | – | CC(C)(C)n1ccc(C(=O)NCC(=O)Nc2nc(-c3cccc(N4CC(F)(F)C4)n3)cs2)c1 [Compound 646]
20 | > 0.1 | > 0.01 | – | – | C[C@H](NC(=O)c1ccn(C2(C)COC2)c1)C(=O)Nc1nc(-c2cccc(-c3ccn(C)n3)c2)cs1 [Compound 589]
21 | > 0.01 | > 0.01 | – | – | CC(C)(C)n1ccc(C(=O)NCC(=O)Nc2nc(-c3cccc(C45CCOCC4C5)n3)cs2)c1 (stereo not drawn) [Compound 751]
22 | – | – | > 0.01 | > 0.01 | CS(=O)(=O)n1ccc(C(=O)NCC(=O)Nc2nc(-c3cccc(OC4CCOCC4)c3)cs2)c1 [Compound 279]
23 | < 0.01 | < 0.01 | – | – | CS(=O)(=O)n1ccc(C(=O)NCC(=O)Nc2nc(-c3cccc(N4CC[C@@H]5COC[C@H]5C4)n3)cs2)c1 [Compound 746]
24 | – | – | > 0.1 | > 0.01 | C[C@H]1CN(c2cccc(-c3csc(NC(=O)CNC(=O)c4ccn(S(C)(=O)=O)c4)n3)c2)[C@@H](C)CO1 [Compound 160]
25 | – | – | > 0.1 | > 0.1 | Cn1c(=O)ccc2ccc(-c3csc(NC(=O)CNC(=O)c4ccn(C(C)(C)C)c4)n3)cc21 [Compound 133, 1-(tert-butyl)-N-(2-((4-(1-methyl-2-oxo-1,2-dihydroquinolin-7-yl)thiazol-2-yl)amino)-2-oxoethyl)-1H-pyrrole-3-carboxamide]
26 | – | – | > 0.01 | < 0.01 | C[C@@H]1CN(c2cccc(-c3csc(NC(=O)CNC(=O)c4ccn(C5(C)COC5)c4)n3)n2)C[C@H](C)O1 [Compound 316]
27 | > 0.1 | > 0.01 | – | – | CO[C@H]1C[C@@H](c2cccc(-c3csc(NC(=O)CNC(=O)c4ccn(C(C)(C)C)c4)n3)n2)C1 [Compound 515]
28 | – | – | > 0.01 | > 0.01 | Cc1cccc(-c2csc(NC(=O)CNC(=O)c3ccn(S(C)(=O)=O)c3)n2)c1 [Compound 247]
29 | > 0.1 | > 0.01 | – | – | Cn1ncc(-c2cccc(-c3csc(NC(=O)CNC(=O)c4ccn(C5(C)COC5)c4)n3)n2)n1 [Compound 470]
30 | – | – | > 0.01 | > 0.01 | CC(C)Oc1cccc(-c2csc(NC(=O)CNC(=O)c3ccn(S(C)(=O)=O)c3)n2)c1 [Compound 281]
31 | – | – | > 0.01 | > 0.01 | CS(=O)(=O)n1ccc(C(=O)NCC(=O)Nc2nc(-c3cccc(N4CCC[C@@H](O)C4)c3)cs2)c1 [Compound 215]
32 | > 0.01 | > 0.01 | – | – | Cn1cc(-c2cccc(-c3csc(NC(=O)CNC(=O)c4ccn(S(C)(=O)=O)c4)n3)c2)nn1 [Compound 447]
33 | > 0.01 | > 0.01 | – | – | COCC1CN(c2cccc(-c3csc(NC(=O)CNC(=O)c4ccn(S(C)(=O)=O)c4)n3)c2)C1 [Compound 427]
34 | – | – | < 0.01 | < 0.01 | Cn1ncc(-c2cccc(-c3csc(NC(=O)CNC(=O)c4ccn(S(C)(=O)=O)c4)n3)c2)n1 [Compound 261]
35 | > 0.01 | > 0.01 | – | – | CN1CCn2nc(-c3cccc(-c4csc(NC(=O)CNC(=O)c5ccn(S(C)(=O)=O)c5)n4)c3)cc2C1=O [Compound 433]
36 | – | – | < 0.01 | > 0.01 | CN1CCc2ccc(-c3csc(NC(=O)CNC(=O)c4ccn(S(C)(=O)=O)c4)n3)cc2C1=O [Compound 137, N-(2-((4-(2-methyl-1-oxo-1,2,3,4-tetrahydroisoquinolin-7-yl)thiazol-2-yl)amino)-2-oxoethyl)-1-(methylsulfonyl)-1H-pyrrole-3-carboxamide]
